In patent US20180037909A1, “MODIFIED CANCER CELL LINES AND USES THEREOF” (Chang Gung Memorial Hospital, Linkou, priority 2016, published 2018):

How the values were obtained:
MCF7 breast cancer cells = assay: Cell growth monitored by xCELLigence System; type: cell-based; settings: FIG. 9
Description: An in vitro evaluation of the effect of ST3Gal1 siRNA (to knock down ST3Gal1 expression) and anti-cancer agent was performed using breast cancer cells.
MCF7 breast cancer cells were treated with one of the regimes in Table 2 and cell growth was monistored by xCELLigence System (ACEA Biosciences, Inc., USA)

[1] = biological target: CD55 from MDA-MB-231 breast cancer cells transfected with ST3Gal1 siRNA (UniProt P08174); assay: CD55 signal in PNA precipitate of lysate, ST3Gal1 siRNA cells against scramble siRNA cells
[2] = tested on: C3 deposit on breast cancer cells; assay: C3 deposition on cancer cell surface by flow cytometry with anti-C3 antibody; type: cell-based; settings: human serum, non-lytic conditions
Description: An in vitro evaluation was performed to assess the decay-accelerating ability of ST3Gal1 silenced breast cancer cells with de-sialylated CD55, by measuring the deposition of C3 fragments on the cancer cell surface.
Breast cancer cells were incubated under non-lytic conditions with human serum and deposited C3 were detected by flow cytometric analysis using anti-C3 antibody. […] There is minimal C3 deposit in both scramble RNA (sc) and ST3Gal1 siRNA (si) transfected breast cancer cells in the absence of anti-HLA antibody (geometric mean fluorescence: sc, 31.5±0.2×10^3; si, 35.2±0.6×10^3).

[3] = tested on: mCRPs (CD46, CD55, and CD59) and target antigens (HLA and SSEA4); assay: FACS expression of membrane complement regulatory proteins and target antigens; type: cell-based; settings: MDA-MB-231, four days after transfection
Source text: (§1) MDA-MB-231 breast cancer cells were transfected with scramble RNA (sc) or ST3Gal1 siRNA (si) according to Example 1. After four days, cells were collected and analyzed for the expression of membrane complement regulatory proteins (mCRPs) and target antigen by fluorescence-activated cell sorting (FACS). There was no change in the expression levels of mCRPs (CD46, CD55, and CD59) and target antigens (HLA and SSEA4) with ST3Gal1 silencing.

CD55 [4] = assay: PNA lectin blot / PNA precipitation of cell lysates with mass spectrometry and CD55 blot; type: cell-based; settings: breast cancer cells
Description: To examine the protein target of ST3Gal1 in breast cancer cells, total cell lysates from scramble or ST3Gal1 siRNA treated breast cancer cells were prepared for PNA lectin blot analysis after precipitation with agarose bound PNA. ST3Gal1 catalyzes the sialylation of galactosyl (β-1, 3) N-acetylgalactosamine, by adding sialic acid to Core 1 O-glycans. Since Peanut agglutinin (PNA) binds preferentially to Core 1 O-glycans (without the added sialic acid), ST3Gal1 knock down is expected to increase PNA binding to Core 1 O-glycans.
As expected, PNA-binding signals in breast cancer cells increased at about 72, 130 and 250 kDa molecular weight, after ST3Gal1 knock down (FIG. 1B). Using in-gel digestion and LTQ-FTD MASS spectrometry, CD55 was identified as one of the PNA-binding proteins with increased signal (by 2.6 folds) after ST3Gal1 knock down and the molecular weight of CD55 is slightly lower in ST3Gal1 silenced cells (FIG. 1C). However, the total CD55 protein levels remained similar (sc vs. si: 1.0 vs. 1.1) (FIG. 1D).

CD55 [5] = assay: LC-MS/MS analysis of released, permethylated O-glycans of CD55; settings: ST3Gal1 silenced vs sc transfected breast cancer cells
Source text: The bi- and tri-antennary structures were all detected as glycoforms of the expected tryptic peptide […], previously reported as the single N-linked glycosylation site. […] The sialylation of core 1 and core 2 O-glycan on CD55 regulates the activity of CD55.
Impairment of 2-3-sialylation of the O-glycans of the CD55 molecule increases non-sialylated core 1 and monosialylated core 2, at the expenses of disialylated core 2 structure. On the other hand, the relative amount of the monosialylated core 1 O-glycan of the CD55 molecule (m/z 895.462) was similar in ST3Gal1 silenced and sc transfected breast cancer cells, probably due to compensation of 2-6-sialylation.

ST3Gal1 mRNA = ST3Gal1 mRNA expression by qPCR, normalized to GAPDH mRNA; type: cell-based; settings: MDA-MB-231 breast cancer cells; for expression of ST3Gal1 RNA compared to sc RNA, siRNA-A or pVoid transfected cells: FIG. 8A-8C
Description: MDA-MB-231 breast cancer cells (available from Bioresource Collection and Research Center, Taiwan) were transfected with scramble siRNA (sc) or ST3Gal1 (si) siRNA with an antisense strand (SEQ ID NO:2) and a sense strand (SEQ ID NO:3). The expression levels of the ST3Gal1 mRNA were analyzed by qPCR analysis and normalized to GAPDH mRNA levels.
MDA-MB-231 breast cancer cells were transfected with scramble siRNA (sc), a vector without shRNA (pVoid), shRNA1-3 (SEQ ID NO:11), shRNA 1-4 (SEQ ID NO:12), or the siRNA listed in Table 1 below:
The expression levels of the ST3Gal1 mRNA were analyzed by qPCR analysis and normalized to GAPDH mRNA levels.

CD46 and CD59 = assay: Western blot of CDC regulatory proteins; type: cell-based; settings: breast cancer cells; FIG. 2B
Source text: In addition, the expression levels of CD46 or CD59 were unaffected in breast cancer cells transfected with ST3Gal1 siRNA.

[6] = tested on: neuroblastoma cells (SH-SY5Y); assay: AlamarBlue cell proliferation assay; type: cell-based; settings: fluorescence 590 nm, FIG. 7B
Description: (§2) Prostate cancer cells (PC3, Bioresource Collection and Research Center, Taiwan) and neuroblastoma cells (SH-SY5Y, obtained from Professor Yi-Cheng Chen, Mackay Medical College, Taiwan) were transfected with a scramble RNA (sc) or ST3Gal1 siRNA (si) according to Example 1. The cell proliferation was determined by AlamarBlue assay using Victor X3 plate reader to measure the fluorescence (590 nm) that was used to present the level of cell proliferation.

[7] = tested on: Prostate cancer cells (PC3); assay: AlamarBlue cell proliferation assay; type: cell-based; settings: fluorescence 590 nm, FIG. 7A
Description: as §2

MDA-MB-231 cells = assay: ADCC assay with human PBMC effectors and anti-SSEA4 antibody; type: cell-based; settings: anti-SSEA4 antibody, Effector:Target ratio 10:1
Description: as §1
ADCC assay was performed using human PBMC cells as effectors, anti-SSEA4 as antibody, and ST3Gal1siRNA transfected MDA-MB-231 cells as targets. […] The mean percentages of lysis are 24.2±1.7% and 41.5±2.4% for sc and si, respectively at Effector:Target ratio of 10:1 ratio (E/T10), and the difference is statistically significant.

Chain of UniProt P08174 (P08174 35-353 limits assumed): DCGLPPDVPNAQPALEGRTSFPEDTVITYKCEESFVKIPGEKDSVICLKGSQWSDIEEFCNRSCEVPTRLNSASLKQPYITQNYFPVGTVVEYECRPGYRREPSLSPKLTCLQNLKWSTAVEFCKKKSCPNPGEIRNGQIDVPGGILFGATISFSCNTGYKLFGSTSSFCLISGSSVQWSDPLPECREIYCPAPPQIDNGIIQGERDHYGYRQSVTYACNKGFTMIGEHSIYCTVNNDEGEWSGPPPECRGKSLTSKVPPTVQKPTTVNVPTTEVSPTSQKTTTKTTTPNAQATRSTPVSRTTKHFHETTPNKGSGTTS

For `CC/C(=C(\c1ccccc1)c1ccc(OCCN(C)C)cc1)c1ccccc1` [tamoxifen], the Cancer cell viability (MCF7 breast cancer cells) was 76%.

Work on `COc1cc2c(Nc3ccc(Br)cc3F)ncnc2cc1OCC1CCN(C)CC1` [vandetanib] yielded a Cancer cell viability (MCF7 breast cancer cells) of 37.5%.

For “Peanut agglutinin (PNA) (from UniProt P02872 24-259)”, the fold increase of signal after ST3Gal1 knock down (against scramble siRNA cells) [1] was 2.6 fold.

In the case of “ST3Gal1 siRNA: ST3Gal1 siRNA with an antisense strand (SEQ ID NO:2) and a sense strand (SEQ ID NO:3) (sense CCGGUUCCUGCAAAGAUCAGAGUGA; antisense UCACUCUGAUCUUUGCAGGAACCGG; listed as RNA, chemistry not given here)”, the “C3 deposit, geometric mean fluorescence” value ([2]; 10 μg/ml anti-HLA antibody) is reported as 89.5±5.5×10^3, the “C3 deposit, geometric mean fluorescence” value ([2]; 25 μg/ml anti-HLA antibody) is reported as 164.8±0.8×10^3 and the “C3 deposit, geometric mean fluorescence” value ([2]; absence of anti-HLA antibody) is reported as 35.2±0.6×10^3. The “expression levels of mCRPs (CD46, CD55, CD59) and target antigens (HLA, SSEA4)” value [3] was “no change”, the Cancer cell viability (MCF7 breast cancer cells) was 65% and the “increase of CD55 PNA-binding signal after ST3Gal1 knock down” value (CD55 [4]; FIG. 1C) was 2.6 folds. The “total CD55 protein levels (sc = 1.0)” value (CD55 [4]; FIG. 1D) was 1.1, the “relative amount of monosialylated core 1 O-glycan of CD55 (m/z 895.462)” value (CD55 [5]) was “similar” and the “relative amount of disialylated core 2 structure at m/z 864.426 (2+) on CD55” value (CD55 [5]; FIG. 6B) was “significantly reduced”. For the same compound, the “relative amount of monosialylated core 2 structure at m/z 683.839 (2+) on CD55” value (CD55 [5]; FIG. 6B) was “increased”, the “expression of ST3Gal1 RNA, % of that of sc transfected breast cancer cells” value (ST3Gal1 mRNA; normalized to GAPDH mRNA) was 28.5±8.2% and the “expression levels of CD46 or CD59” value (CD46 and CD59) was “unaffected”. The “proliferation of neuroblastoma cells compared to sc RNA” value [6] was “significantly reduced”, the “proliferation of prostate cancer cells compared to sc RNA” value [7] was “significantly reduced” and the “mean percentage of lysis (ADCC)” value (MDA-MB-231 cells) was 41.5±2.4%.

With “shRNA1-3: shRNA1-3 (SEQ ID NO:11) (CCGGGCTGGGAGATAATGTCAGCATCTCGAGATGCTGACATTATCTCCCAGCTTTTTG)” the “expression of ST3Gal1 RNA compared to sc RNA, siRNA-A or pVoid transfected cells” value (ST3Gal1 mRNA) was “reduced”.

With “shRNA1-4: shRNA 1-4 (SEQ ID NO:12) (CCGGGCGGGAGAAGAAGCCCAATAACTCGAGTTATTGGGCTTCTTCTCCCGCTTTTTG)” the “expression of ST3Gal1 RNA compared to sc RNA, siRNA-A or pVoid transfected cells” value (ST3Gal1 mRNA) was “reduced”.

“siRNA-1: siRNA, antisense AUCUCAGGCCCAUAAGAAGACUCCC (SEQ ID NO: 4), sense GGGAGUCUUCUUAUGGGCCUGAGAU (SEQ ID NO: 5) (listed as RNA, chemistry not given here)” was tested, and the “expression of ST3Gal1 RNA compared to sc RNA, siRNA-A or pVoid transfected cells” value (ST3Gal1 mRNA) was “reduced”.

For “siRNA-2: siRNA, antisense UCAUGCUGACAUUAUCUCCCAGCUC (SEQ ID NO: 6), sense GAGCUGGGAGAUAAUGUCAGCAUGA (SEQ ID NO: 7) (listed as RNA, chemistry not given here)”, the “expression of ST3Gal1 RNA compared to sc RNA, siRNA-A or pVoid transfected cells” value (ST3Gal1 mRNA) was “reduced”.

For “siRNA-3: siRNA, antisense UUGAGAAGAUGACCGAGAGGAUGCC (SEQ ID NO: 8), sense GGCAUCCUCUCGGUCAUCUUCUCAA (SEQ ID NO: 9) (listed as RNA, chemistry not given here)”, the “expression of ST3Gal1 RNA compared to sc RNA, siRNA-A or pVoid transfected cells” value (ST3Gal1 mRNA) was “reduced”.
